How the values were obtained:
Type in all cases: in vivo, human
serum iron [1] = experiment: Hepcidin administration in healthy subjects (Example 3)
Description: This study enrolled 32 healthy adult subjects in 4 dose groups of 8 subjects per cohort, with 6 subjects assigned to hepcidin treatment and 2 subjects assigned to placebo in each cohort. The starting dose was 5 mg of hepcidin or placebo; subsequent dose groups received 10 mg, 20 mg, and 30 mg, respectively. Subjects received between one and three 1-mL subcutaneous (SC) injections to deliver the desired dose level. Hepcidin concentration was either 5 mg/mL or 10 mg/mL. For data analysis purposes, placebo subjects for all cohort groups were pooled.

serum iron [2] = experiment: Hepcidin administration in patients at risk for iron overload disorders (Example 2)
Description: Eighteen patients at risk for iron overload disorders (i.e., refractory or hemolytic anemia or hemochromatosis) received one or two 1-mL subcutaneous injections to achieve the desired dose level (1 mg, 5 mg, 10 mg, 20 mg, or 30 mg). Hepcidin concentration ranged from 1 to 15 mg/mL.

serum iron [3] = experiment: Serum iron after a single subcutaneous dose of hepcidin in patients (Example 1)
Description: Patients were recruited for a multi-day study to observe serum iron levels following administration of hepcidin. All patients who were recruited had either refractory or hemolytic anemia or hemochromatosis. Patients are divided into cohorts and subsequently treated with hepcidin. Treatment consisted of a single subcutaneous (SC) dose of hepcidin on Day 1. Dose escalation with new cohorts occurred only after the patients at each dose level had been observed for a minimum of 3 days and no drug related toxicity had been observed. The starting dose level was 1 mg given via SC injection on Day 1. Doses ranged from 1 mg to 30 mg. Patient cohorts and dosing can be found in Table 1:
Patients were admitted to the research unit the day before the administration of study drug and discharged following assessments 48 hours post dose. Serum iron, ferritin, transferrin, total iron binding capacity, and unsaturated iron binding capacity were measured on Day 1(baseline) and Day 7 (end of study). Serum iron was also measured at 2, 4, 8, 24, and 48 hours post dosing.

[4] = Baseline (pre-dose) to Day 8/End of Study

Substance: hepcidin: 25-amino acid peptide with the amino acid sequence set forth in SEQ ID NO:1 (DTHFPICIFCCGCCHRSKCGMCCKT)
- Unsaturated iron binding capacity (UIBC) change from baseline (serum iron [1]; Day 8): no trends in changes from baseline
- Ferritin change from baseline (serum iron [1]; Day 8, all treatment groups): increased
- TSAT % change from baseline (serum iron [1]; Day 8, all treatment groups): increased
- total iron binding capacity (TIBC) change from baseline (serum iron [1]; Day 8, all treatment groups): increased
- transferrin change from baseline (serum iron [1]; Day 8, all treatment groups): increased
- anti-drug antibodies (serum iron [1]; healthy subjects): No anti-drug antibodies were detected
- maximum reduction in serum iron, 20 mg versus 30 mg (serum iron [1]; healthy subjects): no apparent difference
- time for serum iron levels to return to baseline (serum iron [1]; healthy subjects): < 48 h
- dose response of serum iron reduction (serum iron [1]; healthy subjects, 5 to 30 mg): larger reductions in serum iron generally associated with increases in dose up to 20 mg
- dose response of serum iron decrease (serum iron [2]; 1 mg to 30 mg SC): greater decrease in serum iron at higher doses
- Mean maximum percentage reduction in serum iron (serum iron [2]; 20-mg dose group, 8 hours post-dose): 58%
- TSAT % level change (serum iron [2]; [4]): Decreases
- ferritin level change (serum iron [2]; [4]): Decreases
- total iron binding capacity (TIBC) change (serum iron [2]; [4]): Decreases
- transferrin level change (serum iron [2]; [4]): Decreases
- serum iron levels compared to baseline (serum iron [2]; all five dose groups (1, 5, 10, 20, 30 mg SC)): decrease in serum iron levels compared to baseline was generally observed
- duration of serum iron reduction (serum iron [2]; most patients): sustained up to Day 8 in most patients
- anti-drug antibodies (serum iron [2]; patients at risk for iron overload disorders): No anti-drug antibodies were detected
- Percent Change in Serum Iron from Baseline to Hour 8 (serum iron [3]; 1 mg single SC dose, n = 3, patients with refractory or hemolytic anemia or hemochromatosis): −14.2% (p = 0.203)
- dose response of serum iron reduction (serum iron [3]; 1 mg to 20 mg, FIG. 1, p-0.009 for dose response): dose-dependent, statistically significant reduction in serum iron
- Percent Change in Serum Iron from Baseline to Hour 8 (serum iron [3]; 5 mg single SC dose, n = 3, patients with refractory or hemolytic anemia or hemochromatosis): −26.7% (p = 0.380)
- Percent Change in Serum Iron from Baseline to Hour 8 (serum iron [3]; 10 mg single SC dose, n = 3, patients with refractory or hemolytic anemia or hemochromatosis): −45.5% (p = 0.077)
- reduction of serum iron from baseline to hour 8 (serum iron [3]; 20 mg dose level, p=0.001): 55.7%
- Percent Change in Serum Iron from Baseline to Hour 8 (serum iron [3]; 20 mg single SC dose, n = 6, patients with refractory or hemolytic anemia or hemochromatosis): −55.7% (p = 0.001)
- reduction of serum iron from baseline to the end of day 7 (serum iron [3]; subjects administered 1 mg, 5 mg, 10 mg or 20 mg, serum iron had not returned to baseline through day 7): 18.0%
- serum iron rebound (serum iron [3]; subjects administered at least 30 mg): rebound effect which resulted in above-baseline serum iron levels within 48 hours of treatment

Source: US20180099023A1, “METHODS OF TREATING IRON OVERLOAD” (La Jolla Pharmaceutical Company, priority 2016, published 2018)
